Assay results taken from patent publication US9839701B2, “Aromatic amino acid derivative and positron emission topography (PET) probe using the same” (OSAKA UNIVERSITY, priority 2013, dated 2017).

biological target: T1, human LAT2 (Homo sapiens, UniProt Q9UHI5); assay: Inhibition of amino acid uptake in human LAT2 stably expressing cell line; format: cell-based; conditions: HEK293, compound at 30 μM; human LAT2 stably expressing HEK293 cell line; read-out: Percentage of inhibition of LAT2-mediated amino acid uptake
T1 construct: expressed in transfected cells
T1 sequence (Q9UHI5 1-535): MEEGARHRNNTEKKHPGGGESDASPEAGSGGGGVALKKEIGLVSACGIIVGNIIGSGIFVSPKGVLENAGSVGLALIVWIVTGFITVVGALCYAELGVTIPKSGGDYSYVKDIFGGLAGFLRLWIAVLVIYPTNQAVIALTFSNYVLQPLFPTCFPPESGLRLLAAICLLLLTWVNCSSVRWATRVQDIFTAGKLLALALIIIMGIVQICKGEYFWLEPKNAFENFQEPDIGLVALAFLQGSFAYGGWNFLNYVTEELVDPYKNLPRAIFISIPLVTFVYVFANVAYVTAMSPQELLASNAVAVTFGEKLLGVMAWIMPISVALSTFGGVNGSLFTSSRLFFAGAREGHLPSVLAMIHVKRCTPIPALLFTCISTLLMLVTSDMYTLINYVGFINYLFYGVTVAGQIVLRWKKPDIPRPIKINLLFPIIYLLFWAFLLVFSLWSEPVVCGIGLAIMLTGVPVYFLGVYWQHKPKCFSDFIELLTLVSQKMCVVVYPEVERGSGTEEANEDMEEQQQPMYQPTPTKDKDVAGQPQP
T1 sequence (P08195 1-529 partner): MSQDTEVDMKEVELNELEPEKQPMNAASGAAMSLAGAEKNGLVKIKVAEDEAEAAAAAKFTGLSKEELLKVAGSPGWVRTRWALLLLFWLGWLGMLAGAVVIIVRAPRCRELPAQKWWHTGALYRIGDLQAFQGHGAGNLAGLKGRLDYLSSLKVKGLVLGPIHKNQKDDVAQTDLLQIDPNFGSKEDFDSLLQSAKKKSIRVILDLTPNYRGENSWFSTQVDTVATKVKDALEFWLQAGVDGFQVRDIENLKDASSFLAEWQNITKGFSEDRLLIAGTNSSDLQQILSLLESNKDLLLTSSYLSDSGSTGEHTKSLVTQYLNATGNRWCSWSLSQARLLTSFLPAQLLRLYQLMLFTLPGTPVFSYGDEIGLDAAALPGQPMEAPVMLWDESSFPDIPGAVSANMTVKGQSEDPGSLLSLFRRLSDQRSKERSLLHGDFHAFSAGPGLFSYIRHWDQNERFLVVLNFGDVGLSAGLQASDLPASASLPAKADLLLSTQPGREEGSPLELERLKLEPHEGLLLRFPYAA
Text: (§1) A human LAT1 expression vector or a human LAT2 expression vector was transfected using Lipofectamine (registered trademark) 2000 (Invitrogen) into a human embryonic kidney cell line HEK293. G418-resistant HEK293 clones were selected, and among them, a clone showing human LAT1-specific amino acid uptake and a clone showing human LAT2-specific amino acid uptake were selected and established as a human LAT1 stably expressing cell line and a human LAT2 stably expressing cell line, respectively (Khunweeraphong et al. J Pharmacol Sci. 2012 Aug. 18; 119(4): 368-80. Epub 2012 Jul. 31).
(§2) The human LAT1 stably expressing cell line and the human LAT2 stably expressing cell line were seeded at 1.2×10^5 cells/well on separate collagen-coated 24-well plates, and after 48 hours, the cells were washed 3 times with an uptake buffer (Na^2+-free Hank's balanced salt solution (HBSS), pH 7.4) prewarmed at 37° C. Compound 10a, compound 10b or a positive control FAMT (fluoro-α-methyltyrosine) was added at 100 μM, and incubation was performed at 37° C. for 3 minutes. Cells not treated with any of these compounds were used as a negative control. After the incubation, 1 μM of [^14C]L-leucine or [^14C]alanine was added to the wells, [^14C]L-leucine or [^14C]alanine uptake was allowed to proceed for 1 minute, and the cells were washed 3 times with an ice-cold uptake buffer. Subsequently, 500 μL of 0.1 M NaOH was added to each well for cell lysis, 20 μL of the lysate was used for the measurement of the protein concentration, and the remaining lysate was used for the measurement of the intracellular radioactivity. The measured radioactivity was normalized to the protein concentration, and on the assumption that the amino acid uptake activity in the negative control was 100%, the percentage (%) of inhibition of amino acid uptake in the presence of each compound was calculated.
(§3) Using the same cell lines as described in Example 2, the compound of Example 1 was examined for the inhibitory effect on leucine or alanine uptake in the human LAT1 stably expressing cell line and the human LAT2 stably expressing cell line in the same manner as in Example 2. FAMT was used as the positive control. The compound of Example 1 or FAMT was added at 100 μM. Cells not treated with either of these compounds were used as a negative control. On the assumption that the amino acid uptake activity in the negative control (control) was 100%, the percentage (%) of inhibition of amino acid uptake in the presence of FAMT or the compound of Example 1 was calculated. In addition, the cancer cell selectivity was calculated as the ratio of the amino acid uptake activity in the human LAT2 stably expressing cell line relative to that in the human LAT1 stably expressing cell line.
(§4) In another experiment, the cells were treated with the compound of Example 1 at eight different concentrations (0.1, 1, 3, 10, 30, 100, 300 and 1000 μM), and the concentration causing 50% inhibition of amino acid uptake was calculated as the IC50 value.
(§5) A human LAT1 stably expressing cell line and a human LAT2 stably expressing cell line, each of which was the same as described in Example 2, were seeded at 1.2×10^5 cells/well, and after 48 hours, the cells were washed 3 times with an uptake buffer (Na^2+-free Hank's balanced salt solution (HBSS), pH 7.4) prewarmed at 37° C. The test compounds, L-tyrosine or the positive control FAMT (fluoro-α-methyltyrosine) was added at 30 μM, and incubation was performed at 37° C. for 3 minutes. Cells not treated with any of these compounds were used as a negative control. After the incubation, 1 μM of [^14C]L-leucine or [^14C]alanine was added to the wells, [^14C]L-leucine or [^14C]alanine uptake was allowed to proceed for 1 minute, and the cells were washed 3 times with an ice-cold uptake buffer. […]

inhibition at 30 µM | Compound
33.1% | N[C@@H](Cc1ccc(O)cc1)C(=O)O [L-Tyr, L-tyrosine, reference compound]
10.6% | NC(Cc1cc(OCCOCCF)ccc1I)C(=O)O (single isomer, unassigned) [compound 27 (R), 2-amino-3-(5-(2-(2-fluoroethoxy)ethoxy)-2-iodophenyl)propanoic acid]

Compound | inhibition at 30 µM
NC(Cc1cc(OCCCCF)ccc1I)C(=O)O (single isomer, unassigned) [compound 25a, 2-amino-3-(5-(4-fluorobutoxy)-2-iodophenyl)propanoic acid] | 7.3%

same assay, conditions: compound at 30 μM; human LAT2 stably expressing HEK293 cell line

Percentage of inhibition of LAT2-mediated amino acid uptake | Compound
16.3% | fluoro-α-methyltyrosine [FAMT, reference compound]

same assay, conditions: compound at 30 μM; human LAT2 stably expressing HEK293 cell line; 30 µM

Percentage of inhibition of LAT2-mediated amino acid uptake | Compound
34.3% | NC(Cc1cc(OCCF)ccc1Br)C(=O)O (single isomer, unassigned) [compound 24b, 2-amino-3-(2-bromo-5-(2-fluoroethoxy)phenyl)propanoic acid]
39.9% | NC(Cc1cc(OCCF)ccc1C1CC1)C(=O)O (single isomer, unassigned) [compound 23b, 2-amino-3-(2-cyclopropyl-5-(2-fluoroethoxy)phenyl)propanoic acid]
6.5% | NC(Cc1cc(OCCOCCF)ccc1I)C(=O)O (single isomer, unassigned) [compound 27 (S), 2-amino-3-(5-(2-(2-fluoroethoxy)ethoxy)-2-iodophenyl)propanoic acid]
0.8% | NC(Cc1cc(OCCF)ccc1Br)C(=O)O (single isomer, unassigned) [compound 24a, 2-amino-3-(2-bromo-5-(2-fluoroethoxy)phenyl)propanoic acid]
24.5% | NC(Cc1cc(OCCF)ccc1I)C(=O)O (single isomer, unassigned) [compound 10b, 2-amino-3-(5-(2-fluoroethoxy)-2-iodophenyl)propanoic acid]
4.7% | NC(Cc1cc(OCCF)ccc1I)C(=O)O (single isomer, unassigned) [compound 10a, 2-amino-3-(5-(2-fluoroethoxy)-2-iodophenyl)propanoic acid]
11.8% | NC(Cc1cc(OCCF)ccc1C1CC1)C(=O)O (single isomer, unassigned) [compound 23a, 2-amino-3-(2-cyclopropyl-5-(2-fluoroethoxy)phenyl)propanoic acid]

Compound | Percentage of inhibition of LAT2-mediated amino acid uptake
NC(Cc1cc(OCCCCF)ccc1I)C(=O)O (single isomer, unassigned) [compound 25b, 2-amino-3-(5-(4-fluorobutoxy)-2-iodophenyl)propanoic acid] | 11.3%

same assay, conditions: compound at 100 μM; human LAT2 stably expressing HEK293 cell line; 1 μM [14C]L-leucine or [14C]alanine, 1 min uptake

Percentage of inhibition of LAT2-mediated amino acid uptake | Compound
28.3% | fluoro-α-methyltyrosine [FAMT, reference compound]

biological target: T2, human LAT1 (Homo sapiens, UniProt Q01650); assay: Inhibition of amino acid uptake in human LAT1 stably expressing cell line; format: cell-based; conditions: HEK293, compound at 30 μM; human LAT1 stably expressing HEK293 cell line; read-out: Percentage of inhibition of LAT1-mediated amino acid uptake
T2 construct: expressed in transfected cells
T2 sequence (Q01650 whole entry, one chain of several): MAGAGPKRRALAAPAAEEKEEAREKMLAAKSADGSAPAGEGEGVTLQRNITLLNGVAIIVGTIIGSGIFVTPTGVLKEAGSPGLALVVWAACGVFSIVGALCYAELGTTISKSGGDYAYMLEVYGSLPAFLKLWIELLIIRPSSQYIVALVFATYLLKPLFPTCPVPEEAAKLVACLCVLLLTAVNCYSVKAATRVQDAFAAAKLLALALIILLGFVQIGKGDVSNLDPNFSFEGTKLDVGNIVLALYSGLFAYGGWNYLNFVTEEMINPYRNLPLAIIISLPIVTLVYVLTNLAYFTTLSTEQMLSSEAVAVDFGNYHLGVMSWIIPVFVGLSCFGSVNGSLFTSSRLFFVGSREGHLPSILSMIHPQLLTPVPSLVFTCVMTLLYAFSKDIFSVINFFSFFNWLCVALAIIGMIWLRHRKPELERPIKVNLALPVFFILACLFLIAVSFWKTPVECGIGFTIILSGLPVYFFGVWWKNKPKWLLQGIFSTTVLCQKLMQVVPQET
Text: as §1, §2, §3, §4, §5

inhibition at 30 µM | Compound
42.3% | N[C@@H](Cc1ccc(O)cc1)C(=O)O [L-Tyr, L-tyrosine, reference compound]

same assay, conditions: compound at 30 μM

Cancer cell selectivity (amino acid uptake activity in human LAT2 line / in human LAT1 line) | Compound
4.42 | NC(Cc1cc(OCCF)ccc1Br)C(=O)O (single isomer, unassigned) [compound 24b, 2-amino-3-(2-bromo-5-(2-fluoroethoxy)phenyl)propanoic acid]
1.16 | N[C@@H](Cc1ccc(O)cc1)C(=O)O [L-Tyr, L-tyrosine, reference compound]
11.2 | NC(Cc1cc(OCCF)ccc1C1CC1)C(=O)O (single isomer, unassigned) [compound 23b, 2-amino-3-(2-cyclopropyl-5-(2-fluoroethoxy)phenyl)propanoic acid]
9.04 | NC(Cc1cc(OCCOCCF)ccc1I)C(=O)O (single isomer, unassigned) [compound 27 (S), 2-amino-3-(5-(2-(2-fluoroethoxy)ethoxy)-2-iodophenyl)propanoic acid]
1.12 | NC(Cc1cc(OCCF)ccc1Br)C(=O)O (single isomer, unassigned) [compound 24a, 2-amino-3-(2-bromo-5-(2-fluoroethoxy)phenyl)propanoic acid]
8.59 | NC(Cc1cc(OCCF)ccc1I)C(=O)O (single isomer, unassigned) [compound 10b, 2-amino-3-(5-(2-fluoroethoxy)-2-iodophenyl)propanoic acid]
1.39 | NC(Cc1cc(OCCOCCF)ccc1I)C(=O)O (single isomer, unassigned) [compound 27 (R), 2-amino-3-(5-(2-(2-fluoroethoxy)ethoxy)-2-iodophenyl)propanoic acid]
1.5 | fluoro-α-methyltyrosine [FAMT, reference compound]
1.44 | NC(Cc1cc(OCCF)ccc1I)C(=O)O (single isomer, unassigned) [compound 10a, 2-amino-3-(5-(2-fluoroethoxy)-2-iodophenyl)propanoic acid]
1.41 | NC(Cc1cc(OCCF)ccc1C1CC1)C(=O)O (single isomer, unassigned) [compound 23a, 2-amino-3-(2-cyclopropyl-5-(2-fluoroethoxy)phenyl)propanoic acid]

Compound | Cancer cell selectivity (amino acid uptake activity in human LAT2 line / in human LAT1 line)
NC(Cc1cc(OCCCCF)ccc1I)C(=O)O (single isomer, unassigned) [compound 25a, 2-amino-3-(5-(4-fluorobutoxy)-2-iodophenyl)propanoic acid] | 1.49
NC(Cc1cc(OCCCCF)ccc1I)C(=O)O (single isomer, unassigned) [compound 25b, 2-amino-3-(5-(4-fluorobutoxy)-2-iodophenyl)propanoic acid] | 15.13

same assay, conditions: compound at 30 μM; human LAT1 stably expressing HEK293 cell line

Percentage of inhibition of LAT1-mediated amino acid uptake | Compound
44.2% | fluoro-α-methyltyrosine [FAMT, reference compound]

same assay, conditions: compound at 30 μM; human LAT1 stably expressing HEK293 cell line; 30 µM

Percentage of inhibition of LAT1-mediated amino acid uptake | Compound
85.1% | NC(Cc1cc(OCCF)ccc1Br)C(=O)O (single isomer, unassigned) [compound 24b, 2-amino-3-(2-bromo-5-(2-fluoroethoxy)phenyl)propanoic acid]
94.5% | NC(Cc1cc(OCCF)ccc1C1CC1)C(=O)O (single isomer, unassigned) [compound 23b, 2-amino-3-(2-cyclopropyl-5-(2-fluoroethoxy)phenyl)propanoic acid]
89.5% | NC(Cc1cc(OCCOCCF)ccc1I)C(=O)O (single isomer, unassigned) [compound 27 (S), 2-amino-3-(5-(2-(2-fluoroethoxy)ethoxy)-2-iodophenyl)propanoic acid]
11.6% | NC(Cc1cc(OCCF)ccc1Br)C(=O)O (single isomer, unassigned) [compound 24a, 2-amino-3-(2-bromo-5-(2-fluoroethoxy)phenyl)propanoic acid]
91.2% | NC(Cc1cc(OCCF)ccc1I)C(=O)O (single isomer, unassigned) [compound 10b, 2-amino-3-(5-(2-fluoroethoxy)-2-iodophenyl)propanoic acid]
35.4% | NC(Cc1cc(OCCOCCF)ccc1I)C(=O)O (single isomer, unassigned) [compound 27 (R), 2-amino-3-(5-(2-(2-fluoroethoxy)ethoxy)-2-iodophenyl)propanoic acid]
33.8% | NC(Cc1cc(OCCF)ccc1I)C(=O)O (single isomer, unassigned) [compound 10a, 2-amino-3-(5-(2-fluoroethoxy)-2-iodophenyl)propanoic acid]
37.5% | NC(Cc1cc(OCCF)ccc1C1CC1)C(=O)O (single isomer, unassigned) [compound 23a, 2-amino-3-(2-cyclopropyl-5-(2-fluoroethoxy)phenyl)propanoic acid]

Compound | Percentage of inhibition of LAT1-mediated amino acid uptake
NC(Cc1cc(OCCCCF)ccc1I)C(=O)O (single isomer, unassigned) [compound 25a, 2-amino-3-(5-(4-fluorobutoxy)-2-iodophenyl)propanoic acid] | 37.7%
NC(Cc1cc(OCCCCF)ccc1I)C(=O)O (single isomer, unassigned) [compound 25b, 2-amino-3-(5-(4-fluorobutoxy)-2-iodophenyl)propanoic acid] | 94.1%

same assay, conditions: compound at 100 μM

Compound | Cancer cell selectivity (amino acid uptake activity in human LAT2 line / in human LAT1 line)
NC(Cc1cc(OCCF)ccc1I)C(=O)O (single isomer, unassigned) [compound 10b, 2-amino-3-(5-(2-fluoroethoxy)-2-iodophenyl)propanoic acid] | higher than that in the human LAT2 stably expressing cell line
NC(Cc1cc(OCCF)ccc1I)C(=O)O (single isomer, unassigned) [compound 10a, 2-amino-3-(5-(2-fluoroethoxy)-2-iodophenyl)propanoic acid] | higher than that in the human LAT2 stably expressing cell line

same assay, conditions: compound at 100 μM; human LAT1 stably expressing HEK293 cell line; 1 μM [14C]L-leucine or [14C]alanine, 1 min uptake

Percentage of inhibition of LAT1-mediated amino acid uptake | Compound
52.4% | fluoro-α-methyltyrosine [FAMT, reference compound]
